Laboratory results taken from a compilation of properties of binary mixtures (doi:10.1016/j.fluid.2020.112621).

Test: xn = mol fraction of the nth substance listed
Details: 101 kPa

CC(=O)O.CC(=O)[O-].CC[NH+](CC)CCO + CCCC[n+]1ccn(C)c1.COP(=O)([O-])OC
viscosity [mPa·s]
Details | x1 = 0.0748 | x1 = 0.3316 | x1 = 0.4263 | x1 = 0.5275 | x1 = 0.6343 | x1 = 0.7493 | x1 = 0.8567 | x1 = 1
278.15 K | 2020 | – | 363 | – | 329 | 314 | 310 | 340
283.15 K | 1280.5 | 315 | 254.3 | 234.7 | 229 | – | 210 | 227
288.15 K | 840 | 224.3 | 183.7 | – | 164 | 157.9 | 146.3 | 156.1
293.15 K | – | 164.3 | 135.3 | 124 | 120.6 | – | 104.7 | 110.4
298.15 K | 396 | 123.7 | 102.2 | – | – | 88 | – | 80.2
303.15 K | – | 95.2 | 79 | 72.4 | 70.3 | 67.9 | 57.8 | –
308.15 K | 208 | – | 62.2 | 57 | 55.2 | – | 44.3 | 45.3
313.15 K | 155.8 | 58.3 | 48.55 | – | – | 41.14 | 34.65 | 35.12
318.15 K | 119.1 | 48.01 | 40.43 | 36.97 | 35.71 | 34.54 | – | 27.71
323.15 K | 92.7 | 39.18 | 33.11 | – | – | 28.27 | – | 22.22
328.15 K | – | 32.29 | – | 25.04 | 24.08 | – | 18.26 | 18.08
333.15 K | 58.8 | 24.59 | 20.72 | 18.82 | – | – | 15.16 | 14.9
338.15 K | – | 22.48 | 19.2 | 17.53 | 16.79 | 16.24 | 12.72 | 12.45
343.15 K | 39.38 | 18.97 | 16.24 | 14.82 | 14.16 | – | 10.79 | 10.49
348.15 K | 32.81 | 16.13 | 13.83 | 12.6 | – | 11.59 | 9.24 | –
353.15 K | 27.63 | 12.97 | 11.07 | 10.04 | 9.54 | 9.16 | 7.98 | 7.67
358.15 K | 23.49 | 11.89 | 10.22 | – | 8.82 | 8.46 | – | –
363.15 K | 20.16 | 10.32 | 8.87 | 8.06 | 7.63 | 7.29 | 6.09 | –
368.15 K | 17.45 | 9.01 | 7.75 | – | – | 6.33 | 5.37 | 5.09
373.15 K | 15.23 | 7.79 | 6.7 | 6.06 | 5.71 | 5.43 | 4.76 | 4.5

CCCCC(=O)[O-].CC[NH+](CC)CCO + CCCC[n+]1ccn(C)c1.COP(=O)([O-])OC
viscosity [mPa·s]
Details | x1 = 0.1018 | x1 = 0.1952 | x1 = 0.3029 | x1 = 0.4003 | x1 = 0.4973 | x1 = 0.5989 | x1 = 0.6984 | x1 = 0.7978 | x1 = 0.8868 | x1 = 1
278.15 K | 2088 | 1185.7 | 676 | 440 | 318.2 | 250.8 | – | 190.6 | 171.4 | 156.6
283.15 K | 1327.5 | 786 | 464 | 309 | – | 180.3 | 156.2 | 137.6 | 123.9 | 113.1
288.15 K | – | 536 | 327.1 | 222.5 | 165.5 | 132.6 | 115 | 101.5 | 91.4 | 83.2
293.15 K | – | 376 | 236.3 | 163.8 | 123.3 | 99.4 | 86.4 | 76.3 | 68.8 | 62.4
298.15 K | 416 | – | 174.8 | 123.2 | 93.8 | – | 66.1 | – | 52.75 | 47.75
303.15 K | 298.4 | – | – | 94.6 | 72.7 | 59.21 | 51.52 | 45.65 | 41.15 | –
308.15 K | 219.3 | – | 101.6 | 73.8 | 57.24 | – | 40.78 | 36.17 | 32.59 | 29.31
313.15 K | 164.7 | 115.4 | – | – | 45.77 | – | 32.76 | 29.07 | – | 23.48
318.15 K | 126 | – | 63.2 | – | 37.12 | – | – | 23.66 | 21.33 | 19.07
323.15 K | 98.1 | 71.4 | 50.96 | 38.46 | 30.5 | 25.23 | 21.99 | – | 17.59 | 15.68
328.15 K | 77.7 | 57.48 | 41.66 | 31.79 | – | – | – | 16.26 | 14.66 | 13.03
333.15 K | – | 46.87 | – | – | 21.3 | 17.73 | 15.45 | 13.7 | – | –
338.15 K | 50.75 | – | 28.83 | 22.42 | – | – | 13.14 | 11.64 | 10.49 | 9.27
343.15 K | 41.81 | 32.29 | 24.35 | – | – | 12.94 | – | 9.98 | 8.99 | 7.91
348.15 K | 34.84 | 27.23 | 20.77 | 16.43 | 13.36 | – | 9.74 | 8.63 | 7.76 | 6.81
353.15 K | 29.34 | 23.18 | 17.87 | 14.23 | 11.63 | – | 8.48 | 7.51 | 6.75 | 5.9
358.15 K | 24.95 | 19.9 | 15.5 | 12.43 | 10.19 | 8.56 | 7.44 | 6.58 | – | –
363.15 K | – | 17.23 | 13.54 | 10.92 | 8.99 | 7.56 | – | 5.81 | 5.2 | 4.52
368.15 K | 18.52 | 15.03 | 11.92 | 9.66 | 7.98 | 6.72 | 5.83 | 5.15 | 4.61 | 3.99
373.15 K | 16.15 | 13.21 | 10.55 | – | 7.12 | 6 | 5.2 | 4.59 | 4.1 | –
